From US12391697B2, “Condensed bi-heterocycles as inhibiting agents for Bruton's tyrosine kinase” (BIOGEN MA INC., priority 2019, dated 2025)
Where a name gives a salt, the structure may show the parent alone.

The compounds below were run against BTK (Homo sapiens (Human), UniProt Q06187) (assay: In Vitro BTK Kinase Assay: Btk-PolyGAT-LS Assay). Conditions: active BTK enzyme 0.25 nM, ATP 10 μM, polyGAT 100 nM, 30 minutes.
BTK, sequence (Q06187 whole entry): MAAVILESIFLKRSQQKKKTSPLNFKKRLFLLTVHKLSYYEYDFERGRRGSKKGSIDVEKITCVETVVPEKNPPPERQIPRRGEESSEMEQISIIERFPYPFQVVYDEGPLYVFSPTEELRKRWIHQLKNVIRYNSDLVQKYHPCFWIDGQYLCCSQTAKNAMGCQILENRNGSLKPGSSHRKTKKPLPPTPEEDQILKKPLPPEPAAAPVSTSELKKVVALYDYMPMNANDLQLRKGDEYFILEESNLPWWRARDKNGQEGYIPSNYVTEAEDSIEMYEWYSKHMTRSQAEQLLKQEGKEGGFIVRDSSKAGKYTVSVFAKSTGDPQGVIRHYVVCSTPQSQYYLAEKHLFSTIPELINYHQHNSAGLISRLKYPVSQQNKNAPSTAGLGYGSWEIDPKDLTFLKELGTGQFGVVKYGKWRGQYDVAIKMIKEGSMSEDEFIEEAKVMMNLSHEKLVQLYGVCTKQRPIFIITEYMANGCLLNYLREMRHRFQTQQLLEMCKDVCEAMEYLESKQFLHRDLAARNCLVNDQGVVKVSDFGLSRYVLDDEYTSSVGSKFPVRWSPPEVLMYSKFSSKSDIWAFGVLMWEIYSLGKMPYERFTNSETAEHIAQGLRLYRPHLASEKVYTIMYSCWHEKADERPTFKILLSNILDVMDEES
Format: biochemical
Method in brief: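 Recombinant BTK (0.25 nM) phosphorylating 100 nM polyGAT at 10 μM ATP in Tris-HCl pH 7.5 buffer with MgCl2, DTT, Triton X-100 and casein, 30 min, then EDTA stop.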
Compound `Cc1cc(-c2ncnn3cc(C4=CCOCC4)cc23)ccc1CNC(=O)c1cnc(C(C)(C)C)o1` (single isomer, unassigned) [Example 125] has an IC50 of no more than 1 nM. For `CC(C)(C)n1cc(C(=O)NCc2ccc(-c3ncnn4cc(C5=CCOCC5)cc34)cc2C(F)F)cn1` [Example 208], the IC50 was no more than 1 nM. In the case of `COc1c(CNC(=O)c2nnc(C(C)(C)C)o2)ccc(-c2ncnn3cc(-c4cnn(C)c4)cc23)c1F` [Example 201], the IC50 is reported as 1 to 10 nM. Compound `Cc1cc(-c2ncnn3cc(-c4cnn(C)c4C)cc23)ccc1CNC(=O)c1noc(C(C)(C)C)n1` [Example 109] has an IC50 of no more than 1 nM. In the case of `Cc1cc(-c2ncnn3cc(N4CC5CC(C4)N5C)cc23)ccc1CNC(=O)c1noc(C(C)(C)C)n1` [Example 148], the IC50 is reported as 1 to 10 nM. Work on `Cc1cc(-c2ncnn3cc(N4CCN(C5COC5)C[C@@H]4C)cc23)ccc1CNC(=O)c1noc(C(C)(C)C)n1` [Example 75, (S)-5-(tert-butyl)-N-(2-methyl-4-(6-(2-methyl-4-(oxetan-3-yl)piperazin-1-yl)pyrrolo[2,1-f][1,2,4]triazin-4-yl)benzyl)-1,2,4-oxadiazole-3-carboxamide] yielded an IC50 of 1 to 10 nM. For `CC(C)(C)c1coc(C(=O)NCc2ccc(-c3ncnn4cc(N5CCOCC5)cc34)cc2C(F)F)n1` [Example 222], the IC50 was 1 to 10 nM. `Cc1cc(-c2ncnn3cc(C4CCOC4)cc23)ccc1CNC(=O)c1noc(C(C)(C)C)n1` (centres unmarked) [Example 95] was tested, and the IC50 was 1 to 10 nM. In the case of `CC(C)(C)c1nc(C(=O)NCc2cc(F)c(-c3ncnn4cccc34)cc2Cl)co1` [Example 134], the IC50 is reported as greater than 10 nM. Compound `Cc1c(CNC(=O)c2nc(C(C)(C)C)no2)ccc(-c2ccnc3cc(-c4cnn(C)c4)nn23)c1F` [Example 83] has an IC50 of no more than 1 nM. Compound `Cc1cc(-c2ncnn3cc(-c4cnn(C)c4C)cc23)ccc1CNC(=O)c1coc(C(C)(C)C)n1` [Example 130] has an IC50 of no more than 1 nM. `CC(C)(C)n1cc(C(=O)NCc2ccc(-c3ncnn4cc(N5CCOCC5)cc34)c(F)c2Cl)cn1` [Example 155] showed an IC50 of no more than 1 nM. In the case of `CC(C)(C)n1cc(C(=O)NCc2ccc(-c3ncnn4cc(N5CCOCC5)cc34)c(F)c2C2CC2)nn1` [Example 164], the IC50 is reported as 1 to 10 nM. `Cc1cc(-c2c(C#N)cnn3cccc23)ccc1CNC(=O)c1noc(C(C)(C)C)n1` [Example 53] was tested, and the IC50 was greater than 10 nM. Work on `Cn1cc(-c2cc3c(-c4ccc(CNC(=O)c5nc(C(C)(C)C)no5)c(C(F)F)c4)ncnn3c2)cn1` [Example 190] yielded an IC50 of no more than 1 nM. In the case of `Cc1cc(-c2ccnn3cccc23)ccc1CNC(=O)c1nc(C(C)(C)C)no1` [Example 18, 3-(tert-butyl)-N-(2-methyl-4-(pyrrolo[1,2-b]pyridazin-4-yl)benzyl)-1,2,4-oxadiazole-5-carboxamide], the IC50 is reported as 1 to 10 nM. For `Cc1cc(-c2ncnn3cc(N4CCN(C)C[C@H]4C)cc23)ccc1CNC(=O)c1noc(C(C)(C)C)n1` [Example 92], the IC50 was 1 to 10 nM. For `Cc1cc(-c2ncnn3cc(N4C[C@@H]5C[C@H]4CN5C)cc23)ccc1CNC(=O)c1noc(C(C)(C)C)n1` [Example 93], the IC50 was greater than 10 nM. `CC(C)(C)c1nc(C(=O)NCc2ccc(-c3ncnn4cc(-c5cnn(CC(F)F)c5)cc34)cc2C(F)F)co1` [Example 210] was tested, and the IC50 was no more than 1 nM. `Cc1cc(-c2ncnn3cc(-c4cnn(CC(F)F)c4)cc23)ccc1CNC(=O)c1nnn(C(C)(C)C)n1` [Example 146] was tested, and the IC50 was no more than 1 nM. `Cc1cc(-c2ncnn3cc(N4CCOCC4)cc23)ccc1CNC(=O)c1nnn(C(C)(C)C)n1` [Example 114] was tested, and the IC50 was no more than 1 nM. `Cc1c(CNC(=O)c2noc(C(C)(C)C)n2)ccc(-c2ccnc3cc(N4CCOCC4)nn23)c1F` [Example 84] showed an IC50 of 1 to 10 nM. With `CC(C)(C)c1noc(C(=O)NCc2ccc(-c3ncnn4cc(N5CCOCC5)cc34)cc2C(F)(F)F)n1` [Example 186] the IC50 was no more than 1 nM. For `COc1c(CNC(=O)c2cn(C(C)(C)C)nn2)ccc(-c2ncnn3cc(-c4cnn(C)c4)cc23)c1F` [Example 200], the IC50 was 1 to 10 nM. With `Cc1cc(-c2ncnn3cc(N4CCN(C)C(=O)C4)cc23)ccc1CNC(=O)c1noc(C(C)(C)C)n1` [Example 177] the IC50 was no more than 1 nM. `Cc1cc(-c2ncnn3cc(-c4cccnc4)cc23)ccc1CNC(=O)c1noc(C(C)(C)C)n1` [Example 169] was tested, and the IC50 was no more than 1 nM. With `COc1cc(-c2ncnn3cc(-c4cnn(C)c4)cc23)ccc1CNC(=O)c1nc(C(C)(C)C)no1` [Example 189] the IC50 was no more than 1 nM. `CC(C)(C)n1cc(C(=O)NCc2ccc(-c3ncnn4cc(N5CCOCC5)cc34)cc2Cl)cn1` [Example 160] was tested, and the IC50 was no more than 1 nM. Work on `CC(C)(C)n1cc(C(=O)NCc2ccc(-c3ncnn4cc(N5CCOCC5)cc34)cc2C(F)(F)F)nn1` [Example 187] yielded an IC50 of no more than 1 nM. `Cc1cc(-c2ncnn3cc(N4CCN(C)[C@@H](C)C4)cc23)ccc1CNC(=O)c1noc(C(C)(C)C)n1` (single isomer, unassigned) [Example 116] was tested, and the IC50 was no more than 1 nM. Compound `Cc1cc(-c2ccnn3ccnc23)ccc1CNC(=O)c1noc(C(C)(C)C)n1` [Example 21, 5-(tert-butyl)-N-(4-(imidazo[1,2-b]pyridazin-8-yl)-2-methylbenzyl)-1,2,4-oxadiazole-3-carboxamide trifluoroacetate] has an IC50 of 1 to 10 nM. Compound `Cc1cc(-c2ncnn3cc(N4CCOC(C(C)C)C4)cc23)ccc1CNC(=O)c1nc(C(C)(C)C)no1` (centres unmarked) [Example 100] has an IC50 of 1 to 10 nM. With `CC(C)(C)c1nc(C(=O)NCc2ccc(-c3ncnn4cc(N5CCOCC5)cc34)c(F)c2Cl)no1` [Example 154] the IC50 was no more than 1 nM. `Cc1cc(-c2ncnn3cc(N4CCO[C@@H](C)C4)cc23)ccc1CNC(=O)c1nnn(C(C)(C)C)n1` (single isomer, unassigned) [Example 140] was tested, and the IC50 was 1 to 10 nM. Work on `CC(C)(C)c1nnc(C(=O)NCc2ccc(-c3ncnn4cc(N5CCOCC5)cc34)cc2Cl)o1` [Example 161] yielded an IC50 of 1 to 10 nM. Compound `CC(C)(C)c1noc(C(=O)NCc2ccc(-c3ncnn4cc(N5CCOCC5)cc34)cc2CC(F)F)n1` [Example 65, 3-(tert-butyl)-N-(2-(2,2-difluoroethyl)-4-(6-morpholinopyrrolo[2,1-f][1,2,4]triazin-4-yl)benzyl)-1,2,4-oxadiazole-5-carboxamide hydrochloride] has an IC50 of no more than 1 nM. `Cc1cc(-c2ncnn3cc(C4=CCOCC4)cc23)ccc1CNC(=O)c1coc(C(C)(C)C)n1` [Example 124] was tested, and the IC50 was no more than 1 nM. `CC(C)(C)c1nc(C(=O)NCc2ccc(-c3ncnn4cc(N5CCOCC5)cc34)cc2CC(F)F)no1` [Example 232] showed an IC50 of no more than 1 nM. In the case of `CC(C)(C)n1cc(C(=O)NCc2ccc(-c3ncnn4cc(N5CCOCC5)cc34)cc2C2CC2)nn1` [Example 205], the IC50 is reported as 1 to 10 nM. `Cc1cc(-c2cc3c(-c4ccc(CNC(=O)c5noc(C(C)(C)C)n5)c(C)c4)ncnn3c2)ccn1` [Example 227] showed an IC50 of no more than 1 nM. In the case of `Cc1cc(-c2ccnn3cnnc23)ccc1CNC(=O)c1noc(C(C)(C)C)n1` [Example 47], the IC50 is reported as greater than 10 nM. `Cc1cc(-c2ncnn3cccc23)ccc1CNC(=O)c1cnn(C(C)(C)C)c1` [Example 183] gave an IC50 of 1 to 10 nM. Compound `CC(C)(C)c1nc(C(=O)NCc2ccc(-c3ncnn4cccc34)cc2Cl)no1` [Example 178] has an IC50 of 1 to 10 nM. Work on `Cn1cc(-c2cc3c(-c4ccc(CNC(=O)c5nc(C(C)(C)C)no5)c(CC(F)F)c4F)ncnn3c2)cn1` [Example 66, 3-(tert-butyl)-N-(2-(2,2-difluoroethyl)-3-fluoro-4-(6-(1-methyl-1H-pyrazol-4-yl)pyrrolo[2,1-f][1,2,4]triazin-4-yl)benzyl)-1,2,4-oxadiazole-5-carboxamide hydrochloride] yielded an IC50 of no more than 1 nM. `Cc1cc(-c2ncnn3cc(N4CCn5ccnc5C4)cc23)ccc1CNC(=O)c1nc(C(C)(C)C)no1` [Example 121] was tested, and the IC50 was no more than 1 nM. `Cc1cc(-c2ncnn3cc(-c4cnn(C)c4)cc23)ccc1CNC(=O)c1noc(C(C)(C)CF)n1` [Example 41, 5-(1-fluoro-2-methylpropan-2-yl)-N-(2-methyl-4-(6-(1-methyl-1H-pyrazol-4-yl)pyrrolo[2,1-f][1,2,4]triazin-4-yl)benzyl)-1,2,4-oxadiazole-3-carboxamide] was tested, and the IC50 was no more than 1 nM. Work on `Cn1cc(-c2cc3c(-c4ccc(CNC(=O)c5noc(C(C)(C)C)n5)c(CC(F)F)c4F)ncnn3c2)cn1` [Example 233] yielded an IC50 of no more than 1 nM. With `CC(C)(C)c1nc(C(=O)NCc2ccc(-c3ncnn4cc(N5CCOCC5)cc34)cc2C(F)F)co1` [Example 198] the IC50 was no more than 1 nM. Work on `COc1c(CNC(=O)c2ccn(C(C)(C)C)n2)ccc(-c2ncnn3cc(N4CCOCC4)cc23)c1F` [Example 202] yielded an IC50 of 1 to 10 nM. With `Cc1cc(-c2ncnn3cccc23)ccc1CNC(=O)c1coc(C(C)(F)F)n1` [Example 20, 2-(1,1-difluoroethyl)-N-(2-methyl-4-(pyrrolo[2,1-f][1,2,4]triazin-4-yl)benzyl)oxazole-4-carboxamide trifluoroacetate] the IC50 was greater than 10 nM. With `Cc1cc(-c2ncnn3cc(C#N)cc23)ccc1CNC(=O)c1noc(C(C)(C)C)n1` [Example 102] the IC50 was 1 to 10 nM. `CC(C)(C)c1nc(C(=O)NCc2ccc(-c3ncnn4cccc34)c(F)c2C2CC2)no1` [Example 62, 5-(tert-butyl)-N-(2-cyclopropyl-3-fluoro-4-(pyrrolo[2,1-f][1,2,4]triazin-4-yl)benzyl)-1,2,4-oxadiazole-3-carboxamide trifluoroacetate] showed an IC50 of 1 to 10 nM. For `Cc1cc(-c2ncnn3cc(N4CCO[C@H](C)C4)cc23)ccc1CNC(=O)c1nc(C(C)(C)C)no1` (single isomer, unassigned) [Example 137], the IC50 was no more than 1 nM. `Cc1cc(-c2ccnn3cccc23)ccc1CNC(=O)c1noc(C(C)(C)C)n1` [Example 17, 5-(tert-butyl)-N-(2-methyl-4-(pyrrolo[1,2-b]pyridazin-4-yl)benzyl)-1,2,4-oxadiazole-3-carboxamide] showed an IC50 of 1 to 10 nM. `Cc1cc(-c2ncnn3cc(-c4cnn(C)c4)cc23)ccc1CNC(=O)c1nnc(C(C)(C)C(F)F)o1` [Example 3, 5-(1,1-difluoro-2-methylpropan-2-yl)-N-(2-methyl-4-(6-(1-methyl-1H-pyrazol-4-yl)pyrrolo[2,1-f][1,2,4]triazin-4-yl)benzyl)-1,3,4-oxadiazole-2-carboxamide] gave an IC50 of no more than 1 nM. `Cc1cc(-c2ncnn3cc(N4CCN(C)[C@H](C)C4)cc23)ccc1CNC(=O)c1noc(C(C)(C)C)n1` (single isomer, unassigned) [Example 117] showed an IC50 of no more than 1 nM.
